In the supplement of paper PMC10307832:

Experiments:
Test in all cases: relative viability (nuclei count vs DMSO), 5 days (fraction); higher = more cells survive
[1] = tested on: EBC-1
In short: (§1)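 After 5 days of treatment, lung cancer cells in 1536-well plates were fixed and stained in a single step (final 0.05% Triton X-100, 1% formaldehyde, 1 ug/ml Hoechst) and their nuclei counted on 4× images. Treatment had been applied by pin tool the day after seeding as one drug alone or as a fixed anchor-drug dose with five library-drug doses (not always all listed) in √10 steps. Relative viability is the nuclei count of treated wells divided by that of vehicle wells, and values are medians of duplicate plates.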

[2] = tested on: A549
In short: as §1

[3] = tested on: Calu-6
In short: as §1

[4] = tested on: NCI-H1299
In short: as §1

[5] = tested on: NCI-H1563
In short: as §1

[6] = tested on: NCI-H1703
In short: as §1

[7] = tested on: IA-LM
In short: as §1

How did the relative viability ([1]; first compound 0.08 µM) turn out when `Cc1cnc(-c2cnc(NCCNc3ccc(C#N)cn3)nc2-c2ccc(Cl)cc2Cl)[nH]1` + C[C@@H](Oc1cc(-c2cnn(C3CCNCC3)c2)cnc1N)c1c(Cl)ccc(F)c1Cl [Crizotinib] (partner 1 µM) was run?
Its relative viability is 0.191.

And the relative viability ([1]; first compound 0.253 µM)?
Its relative viability is 0.217.

What about the relative viability ([1]; first compound 0.8 µM) of the same compound?
The relative viability was 0.191.

And the relative viability ([1]; first compound 2.53 µM)?
Its relative viability is 0.19.

And the relative viability ([2]; first compound 0.08 µM)?
Its relative viability is 0.784.

And the relative viability ([2]; first compound 0.253 µM)?
Its relative viability is 0.692.

And the relative viability ([2]; first compound 0.8 µM)?
The relative viability was 0.964.

What about the relative viability ([2]; first compound 2.53 µM) of the same compound?
The relative viability was 0.803.

And the relative viability ([3]; first compound 0.08 µM)?
The relative viability was 0.862.

What about the relative viability ([3]; first compound 0.253 µM) of the same compound?
The relative viability was 0.752.

And the relative viability ([3]; first compound 0.8 µM)?
Its relative viability is 0.81.

And the relative viability ([3]; first compound 2.53 µM)?
Its relative viability is 0.513.

What about the relative viability ([4]; first compound 0.08 µM) of the same compound?
The relative viability was 0.963.

And the relative viability ([4]; first compound 0.253 µM)?
The relative viability was 0.952.

What about the relative viability ([4]; first compound 0.8 µM) of the same compound?
Its relative viability is 0.989.

What about the relative viability ([4]; first compound 2.53 µM) of the same compound?
Its relative viability is 0.845.

What about the relative viability ([5]; first compound 0.08 µM) of the same compound?
The relative viability was 0.92.

And the relative viability ([5]; first compound 0.253 µM)?
The relative viability was 0.891.

And the relative viability ([5]; first compound 0.8 µM)?
Its relative viability is 0.767.

What about the relative viability ([5]; first compound 2.53 µM) of the same compound?
The relative viability was 0.903.

And the relative viability ([6]; first compound 0.08 µM)?
The relative viability was 0.93.

And the relative viability ([6]; first compound 0.253 µM)?
Its relative viability is 0.622.

And the relative viability ([6]; first compound 0.8 µM)?
Its relative viability is 0.861.

And the relative viability ([6]; first compound 2.53 µM)?
The relative viability was 0.73.

What about the relative viability ([7]; first compound 0.08 µM) of the same compound?
Its relative viability is 0.835.

And the relative viability ([7]; first compound 0.253 µM)?
The relative viability was 0.817.

And the relative viability ([7]; first compound 0.8 µM)?
Its relative viability is 0.903.

What about the relative viability ([7]; first compound 2.53 µM) of the same compound?
Its relative viability is 0.803.

For `Cc1cnc(-c2cnc(NCCNc3ccc(C#N)cn3)nc2-c2ccc(Cl)cc2Cl)[nH]1` + C[C@]1(O)C[C@@H](c2nc(-c3ccc4ccc(-c5ccccc5)nc4c3)c3c(N)nccn32)C1 [Linsitinib] (partner 1 µM), which relative viability ([1]; first compound 0.08 µM) is on record?
Its relative viability is 0.913.

What about the relative viability ([1]; first compound 0.253 µM) of the same compound?
The relative viability was 0.713.

And the relative viability ([1]; first compound 0.8 µM)?
The relative viability was 0.859.

What about the relative viability ([1]; first compound 2.53 µM) of the same compound?
The relative viability was 0.819.

What about the relative viability ([2]; first compound 0.08 µM) of the same compound?
Its relative viability is 0.719.

And the relative viability ([2]; first compound 0.253 µM)?
The relative viability was 0.477.

What about the relative viability ([2]; first compound 0.8 µM) of the same compound?
The relative viability was 0.468.

What about the relative viability ([2]; first compound 2.53 µM) of the same compound?
The relative viability was 0.548.

What about the relative viability ([3]; first compound 0.08 µM) of the same compound?
The relative viability was 1.01.

And the relative viability ([3]; first compound 0.253 µM)?
Its relative viability is 0.888.

And the relative viability ([3]; first compound 2.53 µM)?
The relative viability was 0.971.

And the relative viability ([4]; first compound 0.08 µM)?
The relative viability was 0.882.

And the relative viability ([4]; first compound 0.253 µM)?
The relative viability was 0.967.

And the relative viability ([4]; first compound 0.8 µM)?
Its relative viability is 0.503.

What about the relative viability ([4]; first compound 2.53 µM) of the same compound?
Its relative viability is 0.861.

What about the relative viability ([5]; first compound 0.08 µM) of the same compound?
The relative viability was 1.33.

And the relative viability ([5]; first compound 0.253 µM)?
The relative viability was 1.2.

What about the relative viability ([5]; first compound 0.8 µM) of the same compound?
The relative viability was 1.22.

And the relative viability ([5]; first compound 2.53 µM)?
Its relative viability is 1.1.

And the relative viability ([6]; first compound 0.08 µM)?
Its relative viability is 0.986.

And the relative viability ([6]; first compound 0.253 µM)?
Its relative viability is 0.631.

What about the relative viability ([6]; first compound 0.8 µM) of the same compound?
The relative viability was 0.884.

What about the relative viability ([6]; first compound 2.53 µM) of the same compound?
The relative viability was 1.21.

What about the relative viability ([7]; first compound 0.08 µM) of the same compound?
Its relative viability is 0.604.

What about the relative viability ([7]; first compound 0.253 µM) of the same compound?
The relative viability was 0.257.

And the relative viability ([7]; first compound 0.8 µM)?
Its relative viability is 0.744.

And the relative viability ([7]; first compound 2.53 µM)?
Its relative viability is 0.542.

Which results are given for `Cc1cnc(-c2cnc(NCCNc3ccc(C#N)cn3)nc2-c2ccc(Cl)cc2Cl)[nH]1` + Cc1nc(NC(=O)N2CCC[C@H]2C(N)=O)sc1-c1ccnc(C(C)(C)C(F)(F)F)c1 [Alpelisib] (partner 2 µM)?
relative viability ([1]; first compound 0.08 µM): 0.796; relative viability ([1]; first compound 0.253 µM): 0.782; relative viability ([1]; first compound 0.8 µM): 0.78; relative viability ([1]; first compound 2.53 µM): 0.812; relative viability ([2]; first compound 0.08 µM): 0.853; relative viability ([2]; first compound 0.253 µM): 0.753; relative viability ([2]; first compound 0.8 µM): 0.818; relative viability ([2]; first compound 2.53 µM): 0.94; relative viability ([3]; first compound 0.08 µM): 0.946; relative viability ([3]; first compound 0.253 µM): 0.924; relative viability ([3]; first compound 0.8 µM): 0.934; relative viability ([3]; first compound 2.53 µM): 0.822; relative viability ([4]; first compound 0.08 µM): 1.01; relative viability ([4]; first compound 0.253 µM): 0.992; relative viability ([4]; first compound 0.8 µM): 1.1; relative viability ([4]; first compound 2.53 µM): 0.996; relative viability ([5]; first compound 0.08 µM): 1.02; relative viability ([5]; first compound 0.253 µM): 0.9; relative viability ([5]; first compound 0.8 µM): 0.946; relative viability ([5]; first compound 2.53 µM): 0.913; relative viability ([6]; first compound 0.08 µM): 0.329; relative viability ([6]; first compound 0.253 µM): 0.312; relative viability ([6]; first compound 0.8 µM): 0.37; relative viability ([6]; first compound 2.53 µM): 0.535; relative viability ([7]; first compound 0.08 µM): 0.837; relative viability ([7]; first compound 0.253 µM): 0.77; relative viability ([7]; first compound 0.8 µM): 0.86; relative viability ([7]; first compound 2.53 µM): 0.826

Which relative viability ([1]; first compound 5 µM) does the source give for `O=C(O)CCCCC(CCSCc1ccccc1)SCc1ccccc1` (stereo not drawn) [CPI-613] + CC1(C)CCC(c2ccc(Cl)cc2)=C(CN2CCN(c3ccc(C(=O)NS(=O)(=O)c4ccc(N[C@H](CCN5CCOCC5)CSc5ccccc5)c(S(=O)(=O)C(F)(F)F)c4)cc3)CC2)C1 [Navitoclax] (partner 0.5 µM) here?
Its relative viability is 0.373.

And the relative viability ([1]; first compound 15.81 µM)?
The relative viability was 0.404.

What about the relative viability ([1]; first compound 50 µM) of the same compound?
The relative viability was 0.397.

And the relative viability ([1]; first compound 158.11 µM)?
Its relative viability is 0.0793.

And the relative viability ([1]; first compound 500 µM)?
The relative viability was 0.0379.

What about the relative viability ([2]; first compound 5 µM) of the same compound?
The relative viability was 1.11.

What about the relative viability ([2]; first compound 15.81 µM) of the same compound?
The relative viability was 0.977.

And the relative viability ([2]; first compound 50 µM)?
Its relative viability is 1.09.

And the relative viability ([2]; first compound 158.11 µM)?
The relative viability was 0.308.

And the relative viability ([2]; first compound 500 µM)?
The relative viability was 0.0559.

What about the relative viability ([3]; first compound 5 µM) of the same compound?
Its relative viability is 0.72.

What about the relative viability ([3]; first compound 15.81 µM) of the same compound?
The relative viability was 0.744.

What about the relative viability ([3]; first compound 50 µM) of the same compound?
The relative viability was 0.595.

And the relative viability ([3]; first compound 158.11 µM)?
Its relative viability is 0.107.

What about the relative viability ([3]; first compound 500 µM) of the same compound?
Its relative viability is 0.0529.

And the relative viability ([4]; first compound 5 µM)?
Its relative viability is 1.05.

And the relative viability ([4]; first compound 15.81 µM)?
The relative viability was 1.05.

And the relative viability ([4]; first compound 50 µM)?
The relative viability was 1.06.

What about the relative viability ([4]; first compound 158.11 µM) of the same compound?
Its relative viability is 1.01.

And the relative viability ([4]; first compound 500 µM)?
Its relative viability is 1.04.

What about the relative viability ([6]; first compound 5 µM) of the same compound?
Its relative viability is 1.01.

What about the relative viability ([6]; first compound 15.81 µM) of the same compound?
Its relative viability is 0.967.

And the relative viability ([6]; first compound 50 µM)?
Its relative viability is 0.829.

And the relative viability ([6]; first compound 158.11 µM)?
The relative viability was 0.144.

What about the relative viability ([6]; first compound 500 µM) of the same compound?
Its relative viability is 0.0899.

And the relative viability ([7]; first compound 5 µM)?
Its relative viability is 0.692.

What about the relative viability ([7]; first compound 15.81 µM) of the same compound?
Its relative viability is 0.707.

What about the relative viability ([7]; first compound 50 µM) of the same compound?
Its relative viability is 0.685.

What about the relative viability ([7]; first compound 158.11 µM) of the same compound?
The relative viability was 0.0974.

What about the relative viability ([7]; first compound 500 µM) of the same compound?
Its relative viability is 0.0132.
